Reference: US8222247B2, “Modulators of glucocorticoid receptor, AP-1, and/or NF-kappabeta activity and use thereof” (Bristol-Myers Squibb Company, priority 2006, dated 2012)

molecular target: T1, human glucocorticoid receptor (Homo sapiens, UniProt P04150); assay: Glucocorticoid Receptor Binding Assay (I), fluorescence polarization competitor kit; conditions: purified human recombinant full-length GR, Fluormone GS Red
T1 construct: purified human recombinant full-length glucocorticoid receptor (2 nM); purchased Invitrogen Part #2893
T1 sequence (P04150 1-777): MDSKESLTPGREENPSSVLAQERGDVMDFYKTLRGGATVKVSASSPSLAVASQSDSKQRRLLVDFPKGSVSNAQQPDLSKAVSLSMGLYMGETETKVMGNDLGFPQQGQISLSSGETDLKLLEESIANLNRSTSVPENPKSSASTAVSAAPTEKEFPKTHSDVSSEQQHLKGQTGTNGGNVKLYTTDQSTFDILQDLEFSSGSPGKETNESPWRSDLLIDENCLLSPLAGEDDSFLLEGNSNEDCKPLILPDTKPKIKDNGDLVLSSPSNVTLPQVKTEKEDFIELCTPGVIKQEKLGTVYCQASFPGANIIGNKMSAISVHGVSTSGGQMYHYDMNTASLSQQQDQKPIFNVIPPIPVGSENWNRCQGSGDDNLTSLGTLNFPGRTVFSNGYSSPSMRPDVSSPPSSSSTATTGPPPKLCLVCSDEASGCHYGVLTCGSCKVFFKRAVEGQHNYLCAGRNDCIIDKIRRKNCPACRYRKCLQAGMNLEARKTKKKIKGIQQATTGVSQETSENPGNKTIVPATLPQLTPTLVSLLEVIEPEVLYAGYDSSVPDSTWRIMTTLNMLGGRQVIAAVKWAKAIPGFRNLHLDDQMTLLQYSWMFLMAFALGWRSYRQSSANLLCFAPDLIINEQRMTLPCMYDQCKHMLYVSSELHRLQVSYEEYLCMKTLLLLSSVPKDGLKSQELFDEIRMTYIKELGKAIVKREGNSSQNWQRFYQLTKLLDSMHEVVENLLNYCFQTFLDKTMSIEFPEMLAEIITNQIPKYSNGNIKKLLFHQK
Method: Glucocorticoid Receptor Binding Assay (I)^a
In order to assess the affinity of test compounds for the human glucocorticoid receptor, a commercially available kit was used (Glucocorticoid Receptor Competitor Assay Kit, Invitrogen Part #2893). Briefly, purified human recombinant full-length glucocorticoid receptor (2 nM) was mixed with fluorescently labeled glucocorticoid (1 nM Fluormone GS Red) in the presence or absence of test compound. After two hour incubation at room temperature in the dark, the fluorescence polarization (FP) of the samples was measured. The FP of a mixture of receptor, fluorescent probe (i.e. Fluormone GS Red) and 5 μM dexamethasone represented background fluorescence or 100% inhibition, whereas, the FP of the mixture without dexamethasone (but in the presence of vehicle) was taken to be 100% binding. The percentage inhibition of test compounds were then compared to the sample with 5 μM dexamethasone and expressed as % relative binding activity with dexamethasone being 100% and no inhibition is 0%. Test compounds were analyzed in the concentration range from 8.5E-05 μM to 5 μM.

In order of rising Ki:
1. CN(C)C(=O)c1ccc(-c2ccc(C(c3ccccc3)C(C)(C)C(=O)Nc3nncs3)s2)cc1 (stereo not shown) [Example 44, 4-(5-(2,2-dimethyl-3-oxo-1-phenyl-3-(1,3,4-thiadiazol-2-ylamino)propyl)-2-thienyl)-N,N-dimethylbenzamide]  0.89 nM
2. CC(C(=O)Nc1nncs1)C(c1ccccc1)c1ccc(Br)s1 (single isomer, unassigned) [Example 134, 3-(5-bromo-2-thienyl)-2-methyl-3-phenyl-N-1,3,4-thiadiazol-2-ylpropanamide]  1.06 nM
3. CC(C(=O)Nc1nncs1)C(c1ccccc1)c1ccc(Br)s1 (single isomer, unassigned) [Example 135, 3-(5-bromo-2-thienyl)-2-methyl-3-phenyl-N-1,3,4-thiadiazol-2-ylpropanamide]  1.25 nM
4. CN(C)C(=O)c1ccc(-c2ccc(C(c3cccc(F)c3)C(C)(C)C(=O)Nc3nncs3)s2)cc1 (stereo not shown) [Example 36, 4-(5-(1-(3-fluorophenyl)-2,2-dimethyl-3-oxo-3-(1,3,4-thiadiazol-2-ylamino)propyl)-2-thienyl)-N,N-dimethylbenzamide]  1.46 nM
5. CCN(C)C(=O)c1ccc(-c2ccc([C@@H](c3ccccc3)[C@@H](C)C(=O)Nc3nncs3)s2)cc1 (stereo in doubt) [Example 154, N-ethyl-N-methyl-4-(5-((1R,2R)-2-methyl-3-oxo-1-phenyl-3-(1,3,4-thiadiazol-2-ylamino)propyl)-2-thienyl)benzamide]  2.15 nM
6. CC(C)(C(=O)Nc1nncs1)C(c1ccccc1)c1ccc(Br)s1 (single isomer, unassigned) [Example 85, 3-(5-bromo-2-thienyl)-2,2-dimethyl-3-phenyl-N-1,3,4-thiadiazol-2-ylpropanamide]  2.74 nM
7. CC(C(=O)Nc1nncs1)C(c1cccc(F)c1)c1ccc(Br)s1 (mixture of isomers) [Example 93, 3-(5-bromo-2-thienyl)-3-(3-fluorophenyl)-2-methyl-N-1,3,4-thiadiazol-2-ylpropanamide]  2.79 nM
8. CC(C)(C(=O)Nc1nncs1)C(c1cc(F)cc(F)c1)c1ccc(Br)s1 (stereo not shown) [Example 19, 3-(5-bromo-2-thienyl)-3-(3,5-difluorophenyl)-2,2-dimethyl-N-1,3,4-thiadiazol-2-ylpropanamide]  2.93 nM
9. CC(C(=O)Nc1nncs1)C(c1ccccc1)c1ccc(Br)s1 (mixture of isomers) [Example 132, 3-(5-bromo-2-thienyl)-2-methyl-3-phenyl-N-1,3,4-thiadiazol-2-ylpropanamide]  3.2 nM
10. CCN(CC)C(=O)c1ccc(-c2ccc(C(c3ccccc3)C(C)(C)C(=O)Nc3nncs3)s2)cc1 (stereo not shown) [Example 49, 4-(5-(2,2-dimethyl-3-oxo-1-phenyl-3-(1,3,4-thiadiazol-2-ylamino)propyl)-2-thienyl)-N,N-diethylbenzamide]  3.58 nM
11. CC(C)(C(=O)Nc1nncs1)C(c1ccccc1)c1ccc(Br)s1 (stereo not shown) [Example 3, -(5-bromo-2-thienyl)-2,2-dimethyl-3-phenyl-N-1,3,4-thiadiazol-2-ylpropanamide]  3.66 nM
12. C[C@@H](C(=O)Nc1nncs1)[C@H](c1ccccc1)c1ccc(-c2ccc(C(=O)N3CCOCC3)cc2)s1 (stereo in doubt) [Example 152, (2R,3R)-2-methyl-3-(5-(4-(4-morpholinylcarbonyl)phenyl)-2-thienyl)-3-phenyl-N-1,3,4-thiadiazol-2-ylpropanamide]  4.85 nM
13. CC(C)(C(=O)Nc1nncs1)C(c1ccccc1)c1ccc(Br)s1 (single isomer, unassigned) [Example 84, 3-(5-bromo-2-thienyl)-2,2-dimethyl-3-phenyl-N-1,3,4-thiadiazol-2-ylpropanamide]  5.06 nM
14. COc1ccc(-c2ccc(C(c3cccc(F)c3)C(C)(C)C(=O)Nc3nncs3)s2)cc1 (stereo not shown) [Example 35, 3-(3-fluorophenyl)-3-(5-(4-methoxyphenyl)-2-thienyl)-2,2-dimethyl-N-1,3,4-thiadiazol-2-ylpropanamide]  5.75 nM
15. CC(C)(C(=O)Nc1nccs1)C(c1ccccc1)c1ccc(Br)s1 (stereo not shown) [Example 4, 3-(5-bromo-2-thienyl)-2,2-dimethyl-3-phenyl-N-1,3-thiazol-2-ylpropanamide]  6.97 nM
16. CC(C)Oc1ccc(-c2ccc(C(c3ccccc3)C(C)(C)C(=O)Nc3nncs3)cn2)cc1F (stereo not shown) [Example 29, 3-(6-(3-fluoro-4-isopropoxyphenyl)-3-pyridinyl)-2,2-dimethyl-3-phenyl-N-1,3,4-thiadiazol-2-ylpropanamide]  7.69 nM
17. CC(C)(C(=O)Nc1nncs1)C(c1ccccc1)c1ccc(-c2ccc(C(=O)N3CCCCC3)cc2)s1 (stereo not shown) [Example 46, 2,2-dimethyl-3-phenyl-3-(5-(4-(1-piperidinylcarbonyl)phenyl)-2-thienyl)-N-1,3,4-thiadiazol-2-ylpropanamide]  11.7 nM
18. CCN(CC)C(=O)c1ccc(-c2ccc(C(c3ccccc3)C(C)(C)C(=O)Nc3nncs3)s2)cc1Cl (stereo not shown) [Example 48, 2-chloro-4-(5-(2,2-dimethyl-3-oxo-1-phenyl-3-(1,3,4-thiadiazol-2-ylamino)propyl)-2-thienyl)-N,N-diethylbenzamide]  17.4 nM
19. CC(C)Oc1ccc(-c2ccc(C(c3cccc(F)c3)C(C)(C)C(=O)Nc3nncs3)s2)cc1F (stereo not shown) [Example 37, 3-(5-(3-fluoro-4-isopropoxyphenyl)-2-thienyl)-3-(3-fluorophenyl)-2,2-dimethyl-N-1,3,4-thiadiazol-2-ylpropanamide]  53.5 nM
20. CCCN(CCC)C(=O)c1ccc(-c2ccc(C(c3ccccc3)C(C)(C)C(=O)Nc3nncs3)s2)cc1 (stereo not shown) [Example 51, 4-(5-(2,2-dimethyl-3-oxo-1-phenyl-3-(1,3,4-thiadiazol-2-ylamino)propyl)-2-thienyl)-N,N-dipropylbenzamide]  79.7 nM
21. CC(C(=O)Nc1nncs1)C(c1ccccc1)c1ccc(-c2ccc(C(=O)N(C)C)cc2)s1 (single isomer, unassigned) [Example 139, N,N-dimethyl-4-(5-(2-methyl-3-oxo-1-phenyl-3-(1,3,4-thiadiazol-2-ylamino)propyl)-2-thienyl)benzamide]  259 nM
22. CC(C(=O)Nc1nncs1)C(c1ccccc1)c1ccc(-c2ccc(C(=O)N(C)C)cc2)s1 (single isomer, unassigned) [Example 138, N,N-dimethyl-4-(5-(2-methyl-3-oxo-1-phenyl-3-(1,3,4-thiadiazol-2-ylamino)propyl)-2-thienyl)benzamide]  360 nM

tested on: AP-1 induced transcriptional activity; assay: Cellular Transrepressional Assay (AP-1 luciferase reporter in A549 cell, PMA activated); format: cell-based; conditions: Homo sapiens, A549, 7 h, maximum inhibition, pAP-1-Luc, PMA, read-out: AP-1 Max % inh (Cellular Transrepression Assay)
Method in brief: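 A549 cells stably carrying a 7×AP-1-site luciferase reporter were stimulated with 10 ng/ml PMA for 7 h alongside test molecules (0.1 nM to 40 μM). Luminescence read 10 min after luciferase reagent; repression expressed as % decrease of PMA-only signal, EC50 from curve fitting at 50% reduction of AP-1 activity.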

In order of rising Emax:
1. CCN(C)C(=O)c1ccc(-c2ccc([C@@H](c3cccc(F)c3)[C@@H](C)C(=O)Nc3nnc(C)s3)s2)cc1 [Example 141, N-Ethyl-4-(5-((1R,2R)-1-(3-fluorophenyl)-2-methyl-3-((5-methyl-1,3,4-thiadiazol-2-yl)amino)-3-oxopropyl)-2-thienyl)-N-methylbenzamide]  46%
2. C[C@@H](C(=O)Nc1nncs1)[C@H](c1ccccc1)c1ccc(-c2ccc(C(=O)N(C)C)cc2)s1 [Example 140, N,N-dimethyl-4-(5-((1R,2R)-2-methyl-3-oxo-1-phenyl-3-(1,3,4-thiadiazol-2-ylamino)propyl)-2-thienyl)benzamide]  54.1%
3. CCN(C)C(=O)c1ccc(-c2ccc([C@@H](c3cccc(F)c3)[C@@H](C)C(=O)Nc3nccs3)s2)cc1 [Example 143, N-ethyl-4-(5-((1R,2R)-1-(3-fluorophenyl)-2-methyl-3-oxo-3-(1,3-thiazol-2-ylamino)propyl)-2-thienyl)-N-methylbenzamide]  63.6%

same assay, conditions: Homo sapiens, A549, 7 h, pAP-1-Luc, 10 ng/ml PMA, 7 hours, read-out: AP-1 EC50, nM (Cellular Transrepression Assay)

In order of falling EC50:
1. CCN(C)C(=O)c1ccc(-c2ccc([C@@H](c3cccc(F)c3)[C@@H](C)C(=O)Nc3nnc(C)s3)s2)cc1 [Example 141, N-Ethyl-4-(5-((1R,2R)-1-(3-fluorophenyl)-2-methyl-3-((5-methyl-1,3,4-thiadiazol-2-yl)amino)-3-oxopropyl)-2-thienyl)-N-methylbenzamide]  62.2 nM
2. CCN(C)C(=O)c1ccc(-c2ccc([C@@H](c3cccc(F)c3)[C@@H](C)C(=O)Nc3nccs3)s2)cc1 [Example 143, N-ethyl-4-(5-((1R,2R)-1-(3-fluorophenyl)-2-methyl-3-oxo-3-(1,3-thiazol-2-ylamino)propyl)-2-thienyl)-N-methylbenzamide]  16.9 nM
3. C[C@@H](C(=O)Nc1nncs1)[C@H](c1ccccc1)c1ccc(-c2ccc(C(=O)N(C)C)cc2)s1 [Example 140, N,N-dimethyl-4-(5-((1R,2R)-2-methyl-3-oxo-1-phenyl-3-(1,3,4-thiadiazol-2-ylamino)propyl)-2-thienyl)benzamide]  15.2 nM
